Experimental data: US9856220B2 (AbbVie Deutschland GmbH & Co. KG, priority 2011, dated 2018)

Biological target: PDE10A (Homo sapiens (Human), UniProt Q9Y233)
Test: Measurement of PDE activity (recombinant PDE, cAMP HTRF)
Type: biochemical
Conditions: 20 nM cyclic nucleotide substrate, 60 minutes at 29 C
Method: a) Measurement of PDE Activity
The recombinant PDE proteins are used in in vitro enzymatic reaction for measurement of PDE activity. These recombinant proteins, including PDE10A (human, rat and mouse PDE10) and isoforms of PDEs 1, 3, 4, and 5, were purchased from commercial vendor BPS Bioscience. The enzymatic activity of PDEs was determined by cAMP measurement kit from CisBio (IBA) using HTRF technology.
The PDE enzymatic reaction was carried out in assay buffer (20 mM Tris-HCl pH7.5, 10 mM MgCl2, 0.1% bovine serum albumin) containing enzyme and substrate. […] The substrate cyclic nucleotide (cAMP or cGMP) concentration used in the assay was 20 nM for PDE10, and 100 nM for other PDEs. The inhibitory effect of compound was determined by incubating various concentration of inhibitor in the enzymatic assay. […] Next, the compound at varying concentration was mixed with PDE enzyme. The reaction was initiated by addition of cyclic nucleotide substrate, and incubated for 60 minutes at 29 C. The reaction was stopped by addition of lysis buffer from assay kit. The cAMP-d2 and anti-cAMP cryptate in the lysis buffer detected the level of cAMP left from the PDE hydrolysis reaction. […] Thus, IC50 value of inhibitor can be obtained by plotting inhibitor concentration against PDE activity at that concentration.

Sequence of PDE10A (Q9Y233 whole entry, species assumed): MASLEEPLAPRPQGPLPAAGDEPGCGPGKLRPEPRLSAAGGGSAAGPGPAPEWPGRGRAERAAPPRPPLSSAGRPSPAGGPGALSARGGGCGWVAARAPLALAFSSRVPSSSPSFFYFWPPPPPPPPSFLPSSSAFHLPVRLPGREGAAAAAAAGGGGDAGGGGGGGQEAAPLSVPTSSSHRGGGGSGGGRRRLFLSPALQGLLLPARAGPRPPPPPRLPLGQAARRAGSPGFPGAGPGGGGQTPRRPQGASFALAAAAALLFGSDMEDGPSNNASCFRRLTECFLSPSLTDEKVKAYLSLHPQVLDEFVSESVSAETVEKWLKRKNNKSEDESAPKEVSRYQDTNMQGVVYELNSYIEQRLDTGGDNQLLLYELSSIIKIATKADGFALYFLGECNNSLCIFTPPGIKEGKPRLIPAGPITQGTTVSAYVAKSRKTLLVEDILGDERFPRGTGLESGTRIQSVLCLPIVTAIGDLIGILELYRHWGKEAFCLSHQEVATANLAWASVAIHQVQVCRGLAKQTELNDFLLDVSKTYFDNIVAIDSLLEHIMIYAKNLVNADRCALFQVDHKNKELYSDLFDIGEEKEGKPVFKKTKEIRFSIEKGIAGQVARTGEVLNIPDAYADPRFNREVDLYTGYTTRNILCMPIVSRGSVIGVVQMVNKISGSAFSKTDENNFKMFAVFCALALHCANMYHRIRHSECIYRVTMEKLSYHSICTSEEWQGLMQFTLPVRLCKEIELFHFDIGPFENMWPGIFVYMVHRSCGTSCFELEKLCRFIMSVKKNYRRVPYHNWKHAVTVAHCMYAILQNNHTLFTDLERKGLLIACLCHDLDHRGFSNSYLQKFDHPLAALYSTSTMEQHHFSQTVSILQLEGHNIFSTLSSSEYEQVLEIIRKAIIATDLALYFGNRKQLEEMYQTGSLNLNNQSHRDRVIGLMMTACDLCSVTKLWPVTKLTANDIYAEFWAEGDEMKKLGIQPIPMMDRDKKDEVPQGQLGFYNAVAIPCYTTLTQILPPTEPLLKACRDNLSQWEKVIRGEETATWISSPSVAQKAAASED

First: CCCCNC(=O)c1cn(CC)c(=O)c2cc(OC)c(OC)cc12 [Example 1, 2-Ethyl-6,7-dimethoxy-1-oxo-1,2-dihydro-isoquinoline-4-carboxylic acid butylamide]
Second: CCCCCNC(=O)c1cn(CC)c(=O)c2cc(OC)c(OC)cc12 [Example 21, 2-Ethyl-6,7-dimethoxy-1-oxo-1,2-dihydro-isoquinoline-4-carboxylic acid pentylamide]
The IC50 of the first is lower: 100 to 200 nM for the first, 200 to 500 nM for the second.

`CCCC(C)NC(=O)c1cn(CC)c(=O)c2cc(OC)c(OC)cc12` (centres unmarked) [Example 15, 2-Ethyl-6,7-dimethoxy-1-oxo-1,2-dihydro-isoquinoline-4-carboxylic acid (1-methyl-butyl)-amide] and `CCn1cc(C(=O)NC(C)CC(C)C)c2cc(OC)c(OC)cc2c1=O` (centres unmarked) [Example 23, 2-Ethyl-6,7-dimethoxy-1-oxo-1,2-dihydro-isoquinoline-4-carboxylic acid (1,3-dimethyl-butyl)-amide] fall in the same range of IC50: 200 to 500 nM for the first, 200 to 500 nM for the second.

`CCC(C)CNC(=O)c1cn(CC)c(=O)c2cc(OC)c(OC)cc12` (centres unmarked) [Example 20, 2-Ethyl-6,7-dimethoxy-1-oxo-1,2-dihydro-isoquinoline-4-carboxylic acid (2-methyl-butyl)-amide] and `CCn1cc(C(=O)NCCC(C)(C)C)c2cc(OC)c(OC)cc2c1=O` [Example 24, 2-Ethyl-6,7-dimethoxy-1-oxo-1,2-dihydro-isoquinoline-4-carboxylic acid (3,3-dimethyl-butyl)-amide] fall in the same range of IC50: 200 to 500 nM for the first, 200 to 500 nM for the second.

First: CCn1cc(C(=O)NCc2ccccc2)c2cc(OC)c(OC)cc2c1=O [Example 26, 2-Ethyl-6,7-dimethoxy-1-oxo-1,2-dihydro-isoquinoline-4-carboxylic acid benzylamide]
Second: CCn1cc(C(=O)Nc2ccccc2)c2cc(OC)c(OC)cc2c1=O [Example 151, 2-Ethyl-6,7-dimethoxy-1-oxo-N-phenyl-1,2-dihydroisoquinoline-4-carboxamide]
The IC50 of the first is lower: 100 to 200 nM for the first, 200 to 500 nM for the second. The first is the more potent here.

`CCn1cc(C(=O)NCC2CCCCC2)c2cc(OC)c(OC)cc2c1=O` [Example 28, 2-Ethyl-6,7-dimethoxy-1-oxo-1,2-dihydro-isoquinoline-4-carboxylic acid cyclohexylmethyl-amide] and `CCn1cc(C(=O)NCc2ccncn2)c2cc(OC)c(OC)cc2c1=O` [Example 139, 2-Ethyl-6,7-dimethoxy-1-oxo-N-(pyrimidin-4-ylmethyl)-1,2-dihydroisoquinoline-4-carboxamide] fall in the same range of IC50: 200 to 500 nM for the first, 200 to 500 nM for the second.

`CCn1cc(C(=O)NC(C)c2ccccc2)c2cc(OC)c(OC)cc2c1=O` (centres unmarked) [Example 29, 2-Ethyl-6,7-dimethoxy-1-oxo-1,2-dihydro-isoquinoline-4-carboxylic acid (1-phenyl-ethyl)-amide] and `CCn1cc(C(=O)Nc2ccccc2OC)c2cc(OC)c(OC)cc2c1=O` [Example 146, 2-Ethyl-6,7-dimethoxy-N-(2-methoxyphenyl)-1-oxo-1,2-dihydroisoquinoline-4-carboxamide] fall in the same range of IC50: 200 to 500 nM for the first, 200 to 500 nM for the second.

First: CCn1cc(C(=O)NCc2ccccc2F)c2cc(OC)c(OC)cc2c1=O [Example 30, 2-Ethyl-6,7-dimethoxy-1-oxo-1,2-dihydro-isoquinoline-4-carboxylic acid 2-fluoro-benzylamide]
Second: CCn1cc(C(=O)NCc2ccccc2C)c2cc(OC)c(OC)cc2c1=O [Example 154, 2-Ethyl-6,7-dimethoxy-N-(2-methylbenzyl)-1-oxo-1,2-dihydroisoquinoline-4-carboxamide]
The IC50 of the first is higher: 200 to 500 nM for the first, 100 to 200 nM for the second. The second is the more potent here.

First: CCn1cc(C(=O)NCc2cccc(F)c2)c2cc(OC)c(OC)cc2c1=O [Example 31, 2-Ethyl-6,7-dimethoxy-1-oxo-1,2-dihydro-isoquinoline-4-carboxylic acid 3-fluoro-benzylamide]
Second: CCn1cc(C(=O)NCc2cccc(Cl)c2)c2cc(OC)c(OC)cc2c1=O [Example 142, N-(3-Chlorobenzyl)-2-ethyl-6,7-dimethoxy-1-oxo-1,2-dihydroisoquinoline-4-carboxamide]
The IC50 of the first is higher: 200 to 500 nM for the first, 100 to 200 nM for the second. The second is the more potent here.

`CCn1cc(C(=O)NCc2ccc(F)cc2)c2cc(OC)c(OC)cc2c1=O` [Example 32, 2-Ethyl-6,7-dimethoxy-1-oxo-1,2-dihydro-isoquinoline-4-carboxylic acid 4-fluoro-benzylamide] and `CCn1cc(C(=O)NCc2ccc(OC)cc2)c2cc(OC)c(OC)cc2c1=O` [Example 152, 2-Ethyl-6,7-dimethoxy-N-(4-methoxybenzyl)-1-oxo-1,2-dihydroisoquinoline-4-carboxamide] fall in the same range of IC50: 200 to 500 nM for the first, 200 to 500 nM for the second.

`CCn1cc(C(=O)NCc2cccc(F)c2F)c2cc(OC)c(OC)cc2c1=O` [Example 33, 2-Ethyl-6,7-dimethoxy-1-oxo-1,2-dihydro-isoquinoline-4-carboxylic acid 2,3-difluoro-benzylamide] and `CCn1cc(C(=O)NCc2c(F)cccc2F)c2cc(OC)c(OC)cc2c1=O` [Example 35, 2-Ethyl-6,7-dimethoxy-1-oxo-1,2-dihydro-isoquinoline-4-carboxylic acid 2,6-difluoro-benzylamide] fall in the same range of IC50: 200 to 500 nM for the first, 200 to 500 nM for the second.

First: CCn1cc(C(=O)NCc2ccc(F)cc2F)c2cc(OC)c(OC)cc2c1=O [Example 34, 2-Ethyl-6,7-dimethoxy-1-oxo-1,2-dihydro-isoquinoline-4-carboxylic acid 2,4-difluoro-benzylamide]
Second: CCn1cc(C(=O)NCc2ccc(F)c(F)c2)c2cc(OC)c(OC)cc2c1=O [Example 36, 2-Ethyl-6,7-dimethoxy-1-oxo-1,2-dihydro-isoquinoline-4-carboxylic acid 3,4-difluoro-benzylamide]
The IC50 of the first is higher: 200 to 500 nM for the first, 100 to 200 nM for the second. The second is the more potent here.

`CCn1cc(C(=O)NCc2cc(F)cc(F)c2)c2cc(OC)c(OC)cc2c1=O` [Example 37, 2-Ethyl-6,7-dimethoxy-1-oxo-1,2-dihydro-isoquinoline-4-carboxylic acid 3,5-difluoro-benzylamide] and `CCn1cc(C(=O)NCc2cccc(C)c2)c2cc(OC)c(OC)cc2c1=O` [Example 153] fall in the same range of IC50: 100 to 200 nM for the first, 100 to 200 nM for the second.

`CCn1cc(C(=O)N2Cc3ccccc3C2)c2cc(OC)c(OC)cc2c1=O` [Example 51, 4-(1,3-Dihydro-isoindole-2-carbonyl)-2-ethyl-6,7-dimethoxy-2H-isoquinolin-1-one] and `CCn1cc(C(=O)NCc2ccccc2Cl)c2cc(OC)c(OC)cc2c1=O` [Example 162, N-(2-Chlorobenzyl)-2-ethyl-6,7-dimethoxy-1-oxo-1,2-dihydroisoquinoline-4-carboxamide] fall in the same range of IC50: 200 to 500 nM for the first, 200 to 500 nM for the second.

First: CCn1nc(C(=O)NC2CCc3ncccc32)c2cc(OC)c(OC)cc2c1=O (centres unmarked) [Example 129, 3-Ethyl-6,7-dimethoxy-4-oxo-3,4-dihydro-phthalazine-1-carboxylic acid (6,7-dihydro-5H-[1]pyrindin-5-yl)-amide]
Second: CCn1cc(C(=O)NC2CCc3c(F)cccc32)c2cc(OC)c(OC)cc2c1=O (centres unmarked) [Example 173, 2-Ethyl-N-(4-fluoro-2,3-dihydro-1H-inden-1-yl)-6,7-dimethoxy-1-oxo-1,2-dihydroisoquinoline-4-carboxamide]
The IC50 of the first is lower: < 100 nM for the first, 200 to 500 nM for the second.

First: CCC(CC)n1cc(C(=O)NC2CCc3ccccc32)c2cc(OC)c(OC)cc2c1=O (centres unmarked) [Example 135, 2-(1-Ethyl-propyl)-6,7-dimethoxy-1-oxo-1,2-dihydro-isoquinoline-4-carboxylic acid indan-1-ylamide]
Second: CCn1cc(C(=O)NC2CCc3ccc(C)cc32)c2cc(OC)c(OC)cc2c1=O (centres unmarked) [Example 167, 2-Ethyl-6,7-dimethoxy-N-(6-methyl-2,3-dihydro-1H-inden-1-yl)-1-oxo-1,2-dihydroisoquinoline-4-carboxamide]
The IC50 of the first is lower: < 100 nM for the first, 200 to 500 nM for the second. The first is the more potent here.

`CCn1cc(C(=O)NCc2ccccc2OC)c2cc(OC)c(OC)cc2c1=O` [Example 140] and `CCn1cc(C(=O)NCc2ccccn2)c2cc(OC)c(OC)cc2c1=O` [Example 149, 2-Ethyl-6,7-dimethoxy-1-oxo-N-(pyridin-2-ylmethyl)-1,2-dihydroisoquinoline-4-carboxamide] fall in the same range of IC50: 200 to 500 nM for the first, 200 to 500 nM for the second.

`CCn1cc(C(=O)Nc2cccc(C)c2)c2cc(OC)c(OC)cc2c1=O` [Example 145, 2-Ethyl-6,7-dimethoxy-1-oxo-N-m-tolyl-1,2-dihydroisoquinoline-4-carboxamide] and `CCn1cc(C(=O)Nc2ccncc2)c2cc(OC)c(OC)cc2c1=O` [Example 164, 2-Ethyl-6,7-dimethoxy-1-oxo-N-(pyridin-4-yl)-1,2-dihydroisoquinoline-4-carboxamide] fall in the same range of IC50: 200 to 500 nM for the first, 200 to 500 nM for the second.

`CCn1cc(C(=O)NCc2cccnc2)c2cc(OC)c(OC)cc2c1=O` [Example 148, 2-Ethyl-6,7-dimethoxy-1-oxo-N-(pyridin-3-ylmethyl)-1,2-dihydroisoquinoline-4-carboxamide] and `CCn1cc(C(=O)Nc2ccc(F)cc2)c2cc(OC)c(OC)cc2c1=O` [Example 156, 2-Ethyl-N-(4-fluorophenyl)-6,7-dimethoxy-1-oxo-1,2-dihydroisoquinoline-4-carboxamide] fall in the same range of IC50: 200 to 500 nM for the first, 200 to 500 nM for the second.

`CCn1cc(C(=O)NCc2ccccc2CN2CCOCC2)c2cc(OC)c(OC)cc2c1=O` [Example 168, 2-Ethyl-6,7-dimethoxy-N-(2-(morpholinomethyl)benzyl)-1-oxo-1,2-dihydroiso-quinoline-4-carboxamide] and `CCn1cc(C(=O)NC2CCc3cc(Cl)ccc32)c2cc(OC)c(OC)cc2c1=O` (centres unmarked) [Example 169, N-(5-Chloro-2,3-dihydro-1H-inden-1-yl)-2-ethyl-6,7-dimethoxy-1-oxo-1,2-dihydroisoquinoline-4-carboxamide] fall in the same range of IC50: 200 to 500 nM for the first, 200 to 500 nM for the second.
